This note sets out measurements from patent publication US20050009924A1 (priority 2003, published 2005).

Where only a bound is given, the exact number is not on record here.

The subject of one data set is human hepatoma G2 cells. The data set can be described thus: Cytotoxicity assay (XTT colorimetric), Hep G2. The class given is cell-based. The note with it: 48 h of drug exposure.
Another data set concerns rat glioma C6 cells. The data set can be described thus: Cytotoxicity assay (XTT colorimetric), C6 cells. In kind it is cell-based. The note with it: 48 h of drug exposure. Background: Tetrazolium dyes change colour on reduction, which living cells bring about.
In data set [1] the test system is hepatitis B virus transfected hepatoma cell lines, HepG 2.2.15 cells. The data set is described as follows: Cytotoxicity assay, 2.2.15 cells. In kind it is cell-based, human. The note with it: 48 h of drug exposure.
In data set [2] the test system is transcriptional activity of hTERT. The data set can be described thus: SEAP reporter assay of hTERT expression, PhTERT-SEAP (hTERT-BJ1). The following applies: PhTERT-SEAP (hTERT-BJ1). In kind it is cell-based, human. In a few lines: (§1)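 We treated G418-selected reporter cells with varying drug amounts for 24 h and measured SEAP in the heat-inactivated medium as the rate of 405 nm absorbance increase.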
A general note: Reporter assays use an easily measured gene product as a stand-in for the process of interest.

Data set [3] shares this test system. The data set is described as follows: SEAP reporter assay of hTERT expression, PhTERT-SEAP (H1299). In kind it is cell-based, human. The following applies: PhTERT-SEAP(hTERT-H1299). In a few lines: as §1
The test system of data set [4] is non-small-cell lung cancer cells H1299. The data set can be described thus: MTT relative viability, PhTERT-SEAP (H1299) cells. The note with it: PhTERT-SEAP(hTERT-H1299).
Protocol: The tetrazolium reagent (MTT; 3-(4,5-di-methylthiazol)-2,5-diphenyl tetrazolium bromide, USB) was designed to yield a colored formazan upon metabolic reduction by viable cells. Approximately […] cells were plated onto each well of a 96-well plate and incubated in 5% CO2 at 37° C. for 24 h. To assess the in vitro cytotoxicity, each compound was dissolved in DMSO and prepared immediately before the experiments and was diluted into the complete medium before addition to cell cultures. Test compounds were then added to the culture medium for designated various concentrations. After 48 h, an amount of 25 μL of MTT was added to each well, and the samples were incubated at 37° C. for 4 h. A 100 μL solution of lysis buffer containing 20% SDS and 50% N,N-dimethylformamide was added to each well and incubated at 37° C. for another 16 h. The absorbency at 550 nm was measured using an ELISA reader.
Non small lung cancer cells H1299 (telomerase positive) were grown in RPMI 1640 media supplemented with 10% fetal bovine serum, 100 units/mL penicillin and 100 mg/mL streptomycin in a humidified atmosphere with 5% CO2 at 37° C. The hTERT immortalized hTERT-BJ1 (BD Biosciences Clontech)^39 were grown in DMEM media supplemented with 10% fetal calf serum, 100 units/mL penicillin and 100 mg/mL streptomycin, 1 mM sodium pyruvate, and 4 mM I-arginine in a humidified atmosphere with 5% CO2 at 37° C. Culture media were changed every 3 days. […] The stable clones derived from H1299 or hTERT-BJ1 were cultured using conditions that are similar to their parental cells.
The test system of another data set is hTERT-BJ1 cells. The data set is described as follows: MTT relative viability, PhTERT-SEAP (hTERT-BJ1) cells. The note with it: PhTERT-SEAP (hTERT-BJ1).

With “1,4-Bis(2,5-trifluorobenzoylamido)-9,10-anthracenedione [VI29]”, the IC50 (commonly the point on the concentration scale where inhibition reaches its midpoint) was greater than 20 µM with human hepatoma G2 cells, 2.82 µM in the data set on rat glioma C6 cells and 2.2 µM in data set [1]. For the same compound, the “Relative SEAP activity (%)” value is reported as 16 ± 31.8% in data set [2] (1.3 μM); 24 ± 21.5% in data set [2] (13 μM); 26 ± 36.9% in data set [2] (139 μM); 106 ± 6.7% in data set [3] (1.3 μM); 105 ± 7.9% in data set [3] (13 μM); 94 ± 10.2% in data set [3] (139 μM). The SEAP/vibility in data set [2] (1.3 μM) was 0.15; in data set [2] (13 μM), 0.28; in data set [2] (139 μM), 0.47; in data set [3] (1.3 μM) it was 1.07; in data set [3] (13 μM) it was 1.32; in data set [3] (139 μM) it was 2.56. In addition, the “Relative MTT viability (%)” value was 99 ± 8.6% in data set [4] (1.3 μM); 79 ± 10.3% in data set [4] (13 μM); 37 ± 8.8% in data set [4] (139 μM); 107 ± 6.4% in the data set with hTERT-BJ1 cells (1.3 μM); 85 ± 4.8% in the data set on hTERT-BJ1 cells (13 μM); 56 ± 4.6% in the data set with hTERT-BJ1 cells (139 μM).

Take `O=C(Nc1ccc(NC(=O)c2cc(F)cc(Cl)c2Cl)c2c1C(=O)c1ccccc1C2=O)c1cc(F)cc(Cl)c1Cl` [VI23]: the IC50 (with human hepatoma G2 cells; in the data set with rat glioma C6 cells; in data set [1]) was greater than 20 µM in each case. For the same compound, the “Relative SEAP activity (%)” value was 113 ± 16.0% in data set [2] (1.6 μM); 131 ± 19.1% in data set [2] (16 μM); 106 ± 17.3% in data set [2] (161 μM); 102 ± 4.1% in data set [3] (1.6 μM); 102 ± 5.1% in data set [3] (16 μM); 83 ± 4.0% in data set [3] (161 μM). The SEAP/vibility was 1.02 in data set [2] (1.6 μM); 1.20 in data set [2] (16 μM); 1.05 in data set [2] (161 μM); 1.04 in data set [3] (1.6 μM); 0.99 in data set [3] (16 μM); 0.95 in data set [3] (161 μM). The “Relative MTT viability (%)” value was 98 ± 7.0% in data set [4] (1.6 μM); 103 ± 8.7% in data set [4] (16 μM); 87 ± 5.1% in data set [4] (161 μM); 111 ± 6.8% with hTERT-BJ1 cells (1.6 μM); 110 ± 7.1% with hTERT-BJ1 cells (16 μM); 101 ± 6.6% with hTERT-BJ1 cells (161 μM).

Consider `O=C(Nc1ccc(NC(=O)c2ccccc2[N+](=O)[O-])c2c1C(=O)c1ccccc1C2=O)c1ccccc1[N+](=O)[O-]` [VI11, 1,4-Bis(2-nitrobenzoylamido)-9,10-anthracenedione], for which the IC50 (with human hepatoma G2 cells; in the data set with rat glioma C6 cells; in data set [1]) was greater than 20 µM in each case. For the same compound, the “Relative SEAP activity (%)” value worked out at 102 ± 33.4% in data set [2] (1.8 μM); 122 ± 19.5% in data set [2] (18 μM); 114 ± 28.1% in data set [2] (186 μM); 105 ± 4.3% in data set [3] (1.8 μM); 107 ± 7.9% in data set [3] (18 μM); 94 ± 8.0% in data set [3] (186 μM). The SEAP/vibility in data set [2] (1.8 μM) is listed as 0.92; in data set [2] (18 μM) it was 1.14; in data set [2] (186 μM), 1.15; in data set [3] (1.8 μM), 1.00; in data set [3] (18 μM), 1.06; in data set [3] (186 μM), 1.10. In addition, the “Relative MTT viability (%)” value in data set [4] (1.8 μM) was 104 ± 6.3%; in data set [4] (18 μM) it was 101 ± 4.1%; in data set [4] (186 μM), 86 ± 5.3%; in the data set on hTERT-BJ1 cells (1.8 μM) it was 110 ± 4.1%; in the data set on hTERT-BJ1 cells (18 μM), 107 ± 6.3%; with hTERT-BJ1 cells (186 μM), 99 ± 3.2%.

As for `O=C(Nc1ccc(NC(=O)c2ccccc2)c2c1C(=O)c1ccccc1C2=O)c1ccccc1` [VI4, 1,4-Bisbenzoylamido-9,10-anthracenedione], the IC50 (in the data set on human hepatoma G2 cells; in the data set on rat glioma C6 cells; in data set [1]) was greater than 20 µM throughout. Moreover, the “Relative SEAP activity (%)” value is reported as “(−4) ± 25.7^ %” in data set [2] (2.2 μM); “(−10) ± 26.8 ^ %” in data set [2] (22 μM); “(−41) ± 26.8 ^ %” in data set [2] (224 μM); 81 ± 3.3% in data set [3] (2.2 μM); 84 ± 2.6% in data set [3] (22 μM); 80 ± 2.7% in data set [3] (224 μM). Further, the SEAP/vibility in data set [2] (2.2 μM) was −0.04; in data set [2] (22 μM), −0.14; in data set [2] (224 μM) it was −1.10; in data set [3] (2.2 μM), 0.74; in data set [3] (22 μM) it was 0.96; in data set [3] (224 μM), 2.99. Also, the “Relative MTT viability (%)” value in data set [4] (2.2 μM) is listed as 109 ± 6.0%; in data set [4] (22 μM) it was 88 ± 6.2%; in data set [4] (224 μM), 27 ± 1.8%; with hTERT-BJ1 cells (2.2 μM), 95 ± 4.9%; in the data set on hTERT-BJ1 cells (22 μM) it was 69 ± 3.2%; in the data set with hTERT-BJ1 cells (224 μM), 38 ± 2.6%.

For `O=C(Nc1ccc(NC(=O)c2ccc(Cl)cc2)c2c1C(=O)c1ccccc1C2=O)c1ccc(Cl)cc1` [VI16, 1,4-Bis(4-chlorobenzoylamido)-9,10-anthracenedione], the IC50 (in the data set on human hepatoma G2 cells; in the data set with rat glioma C6 cells; in data set [1]) was greater than 20 µM in each case. In addition, the “Relative SEAP activity (%)” value in data set [2] (1.9 μM) is reported as 116 ± 28.6%; in data set [2] (19 μM), 112 ± 21.9%; in data set [2] (194 μM), 152 ± 39.7%; in data set [3] (1.9 μM) it was 109 ± 6.8%; in data set [3] (19 μM), 118 ± 5.6%; in data set [3] (194 μM), 116 ± 12.3%. Besides, the SEAP/vibility in data set [2] (1.9 μM) is reported as 1.05; in data set [2] (19 μM), 1.09; in data set [2] (194 μM), 1.54; in data set [3] (1.9 μM), 1.23; in data set [3] (19 μM), 1.33; in data set [3] (194 μM) it was 1.46. For the same compound, the “Relative MTT viability (%)” value amounted to 89 ± 5.5% in data set [4] (1.9 μM); 89 ± 9.5% in data set [4] (19 μM); 79 ± 5.6% in data set [4] (194 μM); 111 ± 0.8% with hTERT-BJ1 cells (1.9 μM); 103 ± 5.9% in the data set with hTERT-BJ1 cells (19 μM); 99 ± 5.2% in the data set on hTERT-BJ1 cells (194 μM).
